What was measured:
clinical = settings: human, in vivo, po
Text: (§1) The pharmacokinetics of sildenafil after oral tablet administration have been extensively studied in healthy volunteers. The pharmacokinetics of 1-(2-ethoxyethyl)-5-[ethyl(methyl)amino]-N-mesyl-7-[(4-methyl-2-pyridyl)amino]-1H-pyrazolo[4,3-o]pyrimidine-3-carboxamide have been recently studied in several healthy volunteer studies.

[1] = tested on: CCI-induced static allodynia; experiment: Chronic constriction injury (CCI) rat model of neuropathic pain, assessment of static allodynia (von Frey hairs, paw withdrawal threshold); assay type: in vivo
Protocol: Animals: Male Sprague Dawley rats (150-250 g at the time of surgery), obtained from Charles River, (Manston, Kent, U.K.) were housed in groups of 3. All animals were kept under a 12 hour light/dark cycle (lights on at 07 h 00 min) with food and water ad libitum. All experiments were carried out by an observer blind to the treatments and in accordance with the Home Office Animals (Scientific Procedures) Act 1986.
The CCI of sciatic nerve was performed as previously described by Bennett and Xie (Bennett G J, Xie Y K. A peripheral mononeuropathy in rat that produces disorders of pain sensation like those seen in man. Pain: 33:87-107, 1988). Animals were anaesthetised with a 2% isofluorane/O2 mixture. The right hind thigh was shaved and swabbed with 1% iodine. Animals were then transferred to a homeothermic blanket for the duration of the procedure and anaesthesia maintained during surgery via a nose cone. The skin was cut along the line of the thighbone and the common sciatic nerve was exposed Four ligatures (4-0 silk) were tied loosely around the nerve, 1 cm proximally to the trifurcation, with approx 1 mm spacing. The incision was closed in layers.
Animals were habituated to wire bottom test cages prior to the assessment of allodynia. Static allodynia was evaluated by application of calibrated von Frey hairs (Stoelting, Wood Dale, Ill., USA.) in ascending order of force (0.8, 1, 1.4, 2, 4, 6, 8, 10, 15 and 26 grams) to the plantar surface of hind paws. Each von Frey hair was applied to the paw for a maximum of 6 seconds, or until a withdrawal response occurred. Once a withdrawal response to a von Frey hair was established, the paw was re-tested, starting with the filament below the one that produced a withdrawal, and subsequently with the remaining filaments in descending force sequence until no withdrawal occurred. The highest force of 26 g lifted the paw as well as eliciting a response, thus represented the cut off point. Each animal had both hind paws tested in this manner. The lowest amount of force required to elicit a response was recorded as paw withdrawal threshold (PWT) in grams. Static allodynia was defined as present if animals responded to a stimulus of, or less than, 4 g, which is innocuous in naive rats (Field M J, Bramwell S, Hughes J, Singh L. Detection of static and dynamic components of mechanical allodynia in rat models of neuropathic pain: are they signalled by distinct primary sensory neurones? Pain, 1999; 83:303-11).

[2] = Free plasma concentrations in the rat CCI studies; settings: Sprague Dawley; for concentration at 2.5 h: in vivo
Text: It is important to ascertain whether any concluded synergy observed in animals or man is due solely to pharmacokinetic interactions.

[3] = human, in vivo, po
Text: as §1

[4] = oral dosing, CCI-induced static allodynia, rat (FIG. 1)

SMILES | half-life (clinical) [h] | effect on any allodynia endpoint ([1]; compound alone, oral dosing at 0.1 to 1 mg/kg (FIG. 2)) | concentration at 1.3 h ([2]; plasma, oral, 1 mg/kg) [µM] | concentration at 4.3 h ([2]; plasma, oral, 1 mg/kg) [µM] | dose at which a full effect is achieved [1, 4] [mg/kg] | minimum effective dose (MED) [1, 4] [mg/kg] | effect on static allodynia endpoints ([1]; pregabalin alone 10 mg/kg, 2 hours after dosing (FIG. 3)) | concentration at 2.5 h ([2]; 3 mg/kg) [µM] | concentration at 2.5 h ([2]; 20 mg/kg) [µM] | steady state peak to trough ratio of plasma concentration time profile [3] [fold]
CCOCCn1nc(C(=O)NS(C)(=O)=O)c2nc(N(C)CC)nc(Nc3cc(C)ccn3)c21 | 10 to 15 | no effect observed | ≤ 0.0102 | ≤ 0.0161 |  |  |  |  |  | 
CC(C)C[C@H](CN)CC(=O)O [pregabalin, (S)-(+)-4-amino-3-(2-methylpropyl)butanoic acid] |  |  |  |  | 20 | 3 | partially reversed | 17.8 | 89.8 | 
CCCc1nn(C)c2c(=O)[nH]c(-c3cc(S(=O)(=O)N4CCN(C)CC4)ccc3OCC)nc12 [sildenafil, 5-[2-ethoxy-5-(4-methyl-1-piperazinyl-sulphonyl)phenyl]-1-methyl-3-n-propyl-1,6-dihydro-7H-pyrazolo[4,3-d]pyrimidin-7-one] | 4 |  |  |  |  |  |  |  |  | ~4

— patent US20080293746A1 (priority 2007, published 2008)
